# Target: T1, RAGE tail (Homo sapiens, UniProt Q15109)
# T1 construct: The cytoplasmic domain of RAGE, C terminal RAGE or ctRAGE (RAGE tail) is critical for RAGE-dependent signal transduction
# T1 sequence (Q15109 364-404 limits assumed): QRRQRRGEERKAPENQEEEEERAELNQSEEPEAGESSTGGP
# Assay: RAGE tail fluorescence titration (fluorescence quenching), Kd determination
# Details: compound titrated into 100 nM solution of RAGE tail, NB = binding not detected
# Protocol: Binding affinities of small molecules for either CT-RAGE or FH1 are determined by performing fluorescence titrations to generate binding isotherms and standard SPR experiments. […]
# Compound D-IIIa was titrated into 100 nM solution of RAGE tail. Fluorescence quenching was used to determine binding. R^2 quality factor of the fitting was 0.94 (FIG. 1).
# Compound D-IIIb was titrated into 100 nM solution of RAGE tail. Fluorescence quenching was used to determine binding. R^2 quality factor of the fitting was 0.97 (FIG. 2).
# Compound D-IIIc was titrated into 100 nM solution of RAGE tail. Fluorescence quenching was used to determine binding. R^2 quality factor of the fitting was 0.98 (FIG. 3).
# Compound D-IIId was titrated into 100 nM solution of RAGE tail. Fluorescence quenching was used to determine binding. R^2 quality factor of the fitting was 0.99 (FIG. 4).
# Compound D-IIIe was titrated into 100 nM solution of RAGE tail. Fluorescence quenching was used to determine binding. R^2 quality factor of the fitting was 0.98 (FIG. 5).
# Compound D-IIIi was titrated into 100 nM solution of RAGE tail. Fluorescence quenching was used to determine binding. R^2 quality factor of the fitting was 0.90 (FIG. 6).
# Compound D-IIIk was titrated into 100 nM solution of RAGE tail. Fluorescence quenching was used to determine binding. R^2 quality factor of the fitting was 0.89 (FIG. 7).
# Compound D-IIIq was titrated into 100 nM solution of RAGE tail. Fluorescence quenching was used to determine binding. R^2 quality factor of the fitting was 0.82 (FIG. 8).
# Compound D-IIIv was titrated into 100 nM solution of RAGE tail. Fluorescence quenching was used to determine binding. R^2 quality factor of the fitting was 0.93 (FIG. 9).
# Compound D-IIIw was titrated into 100 nM solution of RAGE tail. Fluorescence quenching was used to determine binding. R^2 quality factor of the fitting was 0.94 (FIG. 10).
# Compound D-IVa was titrated into 100 nM solution of RAGE tail. Fluorescence quenching was used to determine binding. R^2 quality factor of the fitting was 0.94 (FIG. 11).
# Compound D-IVb was titrated into 100 nM solution of RAGE tail. Fluorescence quenching was used to determine binding. R^2 quality factor of the fitting was 0.93 (FIG. 12).
# Compound D-IVc was titrated into 100 nM solution of RAGE tail. Fluorescence quenching was used to determine binding. R^2 quality factor of the fitting was 0.92 (FIG. 13).
# Compound D-IVd was titrated into 100 nM solution of RAGE tail. Fluorescence quenching was used to determine binding. R^2 quality factor of the fitting was 0.94 (FIG. 14).
# Compound D-IVe was titrated into 100 nM solution of RAGE tail. Fluorescence quenching was used to determine binding. R^2 quality factor of the fitting was 0.93 (FIG. 15).
# Compound D-IVf was titrated into 100 nM solution of RAGE tail. Fluorescence quenching was used to determine binding. R^2 quality factor of the fitting was 0.95 (FIG. 16).
# Compound D-IVg was titrated into 100 nM solution of RAGE tail. Fluorescence quenching was used to determine binding. R^2 quality factor of the fitting was 0.89 (FIG. 17).
# Compound D-IVh was titrated into 100 nM solution of RAGE tail. Fluorescence quenching was used to determine binding. R^2 quality factor of the fitting was 0.93 (FIG. 18).
row,SMILES,Kd [nM]
1,CC(=O)NC(CN1CCOCC1)Cn1c(C)c(C)c2cc(F)ccc21 [Compound D-IIIi],9
2,Cc1c(C)n(CC(C#N)CN2CCOCC2)c2ccccc12 [Compound D-IIIb],4
3,CC(=O)NC(CN1CCCC(C(=O)O)C1)Cn1c(C)c(C)c2ccccc21 [Compound D-IVf],4.6
4,"CC(=O)NC(CN1CCOCC1)Cn1c(C)c(C)c2ccccc21 [Compound D-IIIc, N-(1-(2,3-dimethyl-1H-indol-1-yl)-3-morphohnopropan-2-yl)acetamide]",9
5,Cc1c(CC(O)CN2CCOCC2)c2ccccc2n1C(C)C [Compound D-IIIq],11
6,Cc1c(CC(O)CN2CCOCC2)c2ccc(F)cc2n1C [Compound D-IIIv],14
7,CC(=O)NC(CN1CCCC(C(N)=O)C1)Cn1c(C)c(C)c2ccccc21 [Compound D-IVg],12
8,O=C(O)C1CCCN(CC(O)Cn2c3c(c4ccccc42)CCCC3)C1 [Compound D-IVc],18
9,Cc1c(C)n(CC(C#N)CN2CCCC(C(=O)O)C2)c2ccccc12 [Compound D-IVd],12
10,Cc1c(C)n(CC(O)CN2CCOCC2)c2cc(F)ccc12 [Compound D-IIId],55
11,Cc1c(C)n(CC(C#N)CN2CCCC(C(N)=O)C2)c2ccccc12 [Compound D-IVe],2.6
12,"Cc1c(CC(O)CN2CCOCC2)c2ccccc2n1C [Compound D-IIIe, 1-(1,2-dimethyl-1H-indol-3-yl)-3-morpholinopropan-2-ol]",20
13,"Cc1c(C)n(CC(O)CN2CCOCC2)c2ccc(F)cc12 [Compound D-IIIa, 1-(5-fluoro-2,3-dimethyl-1H-indol-1-yl)-3-morpholinopropan-2-ol]",82
14,Cc1c(C)n(CC(CC#N)CN2CCOCC2)c2ccccc12 [Compound D-IIIw],4.3
15,Cc1c(C)n(CC(CN2CCOCC2)NC(=O)C(C)C)c2ccccc12 [Compound D-IIIk],62
16,NC(=O)C1CCCN(CC(O)Cn2c3c(c4ccccc42)CCCC3)C1 [Compound D-IVb],11
17,Cc1c(CC(O)CN2CCCC(C(=O)O)C2)c2ccccc2n1C [Compound D-IVh],7.7
18,OC(CN1CCCCC1)Cn1c2c(c3ccccc31)CCCC2 [Compound D-IVa],72

# From patent US20220296604A1, “INDOLE COMPOUNDS AS MODULATORS OF RAGE ACTIVITY AND USES THEREOF” (NEW YORK UNIVERSITY, priority 2019, published 2022)
